Experiments:
[1] = system: SNB-75; experiment: Cytotoxicity against human SNB75 cells at 10 uM assessed as cell growth relative to control; format: functional; details: read-out: Activity
[2] = system: SK-MEL-2; experiment: Cytotoxicity against human SK-MEL-2 cells at 10 uM assessed as cell growth relative to control; format: functional; details: read-out: Activity
[3] = system: SR; experiment: Cytotoxicity against human SR cells at 10 uM assessed as cell growth relative to control; format: functional; details: read-out: Activity
[4] = system: OVCAR-3; experiment: Cytotoxicity against human OVCAR-3 cells at 10 uM assessed as cell growth relative to control; format: functional; details: read-out: Activity
[5] = target: Dual specificity mitogen-activated protein kinase kinase; MEK1/2 (Homo sapiens) (UniProt P36507+Q02750); details: HEK293, at 10 µM
Dual specificity mitogen-activated protein kinase kinase; MEK1/2 (Homo sapiens), sequence (P36507 whole entry, looked up): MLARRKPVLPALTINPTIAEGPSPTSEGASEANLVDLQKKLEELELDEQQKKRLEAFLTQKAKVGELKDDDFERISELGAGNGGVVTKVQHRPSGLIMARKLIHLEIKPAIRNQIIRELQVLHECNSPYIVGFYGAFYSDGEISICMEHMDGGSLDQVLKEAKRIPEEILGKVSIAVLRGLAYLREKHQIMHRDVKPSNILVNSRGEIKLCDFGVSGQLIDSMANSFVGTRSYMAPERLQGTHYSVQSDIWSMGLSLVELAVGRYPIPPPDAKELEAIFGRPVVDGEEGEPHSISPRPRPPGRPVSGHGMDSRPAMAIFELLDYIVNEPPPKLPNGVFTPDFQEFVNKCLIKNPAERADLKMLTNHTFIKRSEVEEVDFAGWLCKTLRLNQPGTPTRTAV
Dual specificity mitogen-activated protein kinase kinase; MEK1/2 (Homo sapiens), sequence (Q02750 whole entry, looked up): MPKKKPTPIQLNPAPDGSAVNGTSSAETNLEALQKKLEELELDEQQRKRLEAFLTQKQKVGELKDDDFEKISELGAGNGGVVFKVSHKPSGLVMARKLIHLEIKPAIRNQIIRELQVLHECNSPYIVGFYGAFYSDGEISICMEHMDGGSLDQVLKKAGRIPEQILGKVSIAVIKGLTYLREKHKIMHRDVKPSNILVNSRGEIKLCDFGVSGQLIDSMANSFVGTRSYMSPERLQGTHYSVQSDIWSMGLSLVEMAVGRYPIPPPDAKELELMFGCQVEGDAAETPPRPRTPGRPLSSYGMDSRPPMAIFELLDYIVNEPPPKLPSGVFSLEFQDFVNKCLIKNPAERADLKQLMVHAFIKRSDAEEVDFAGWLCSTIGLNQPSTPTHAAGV
Description: Inhibition of EGF-induced MEK1/2 activity in HEK293 cells assessed as phosphorylated ERK1/2 level at 10 uM after 1 hr by Western blotting relative to control

[6] = system: HT-29; experiment: Cytotoxicity against human HT-29 cells at 10 uM assessed as cell growth relative to control; format: functional; details: read-out: Activity
[7] = system: Malme-3M; experiment: Cytotoxicity against human MALME-3M cells at 10 uM assessed as cell growth relative to control; format: functional; details: read-out: Activity
[8] = system: HCC 2998; experiment: Cytotoxicity against human HCC2998 cells at 10 uM assessed as cell growth relative to control; format: functional; details: read-out: Activity
[9] = Cytotoxicity against human Hs 578T cells at 10 uM assessed as cell growth relative to control; format: functional; details: read-out: Activity
[10] = system: SK-MEL-5; experiment: Cytotoxicity against human SK-MEL-5 cells at 10 uM assessed as cell growth relative to control; format: functional; details: read-out: Activity
[11] = system: UACC-257; experiment: Cytotoxicity against human UACC257 cells at 10 uM assessed as cell growth relative to control; format: functional; details: read-out: Activity
[12] = system: NCI-H23; experiment: Cytotoxicity against human NCI-H23 cells at 10 uM assessed as cell growth relative to control; format: functional; details: read-out: Activity
[13] = system: CAKI-1; experiment: Cytotoxicity against human Caki1 cells at 10 uM assessed as cell growth relative to control; format: functional; details: read-out: Activity
[14] = system: NCI-H522; experiment: Cytotoxicity against human NCI-H522 cells at 10 uM assessed as cell growth relative to control; format: functional; details: read-out: Activity
[15] = system: NCI-H460; experiment: Cytotoxicity against human NCI-H460 cells at 10 uM assessed as cell growth relative to control; format: functional; details: read-out: Activity
[16] = system: SF-539; experiment: Cytotoxicity against human SF539 cells at 10 uM assessed as cell growth relative to control; format: functional; details: read-out: Activity
[17] = system: PC-3; experiment: Cytotoxicity against human PC3 cells at 10 uM assessed as cell growth relative to control; format: functional; details: read-out: Activity

Compound | growth at 10 µM [1] | growth at 10 µM [2] | growth at 10 µM [3] | growth at 10 µM [4] | inhibition [5] | growth at 10 µM [6] | growth at 10 µM [7] | growth at 10 µM [8] | growth at 10 µM [9] | growth at 10 µM [10] | growth at 10 µM [11] | growth at 10 µM [12] | growth at 10 µM [13] | growth at 10 µM [14] | growth at 10 µM [15] | growth at 10 µM [16] | growth at 10 µM [17]
COc1cc(NCc2ccccc2)c2ncn(C(C)C)c2c1 | 92.3% | 91.6% | 51.7% | 104% | 54% | 109% | 49.2% | 105% | 174% | 122% | 106% | 91.1% | 97.2% | 87% | 107% | 96.2% | –
COCCCOc1cc(NCc2ccccc2)c2ncn(C(C)C)c2c1 | 92% | 92.7% | 103% | 84.9% | – | 109% | 113% | 91.7% | 84.4% | 95.8% | 101% | 109% | 81.3% | 127% | 85.2% | 93.5% | 96.1%

Source: ChEMBL document CHEMBL1275384, “Structure-activity relationships of benzimidazole-based selective inhibitors of the mitogen activated kinase-5 signaling pathway” (2010)
